How the values were obtained:
Format in all cases: cell-based, human
PSC-CMs [1] = assay: Oxygen consumption rate and respiratory reserve capacity of PSC-CMs
Description: FOXO activation with LOM612 (FIG. 18A) or FOXM1 inhibition with RCM-1 (FIG. 18B) increases maximum oxygen consumption rate (OCR) and respiratory reserve capacity, while inhibition of FOXO with AS1842856 (FIG. 18C) inhibits maximum OCR and respiratory reserve capacity.
In some embodiments, the cardiomyocytes are metabolically mature cardiomyocytes. In some aspects, a cardiomyocyte has increased metabolic activity as compared to an immature cardiomyocyte. In some embodiments, a cardiomyocyte has increased oxygen consumption and/or extracellular acidification rate as compared to immature cardiomyocytes. In some embodiments, a cardiomyocyte has increased respiratory reserve as compared to immature cardiomyocytes. Metabolic maturity may be quantified using a Seahorse mito stress metabolic assay (Agilent). The assay may be used to measure oxygen consumption rate and extracellular acidification rate in response to one or more compounds (e.g., small molecule compounds) that affect mitochondrial function.
FOXO activation with LOM612 or FOXM1 inhibition with RCM-1 increases maximum oxygen consumption rate (OCR) and respiratory reserve capacity, while inhibition of FOXO with AS1842856 inhibits maximum OCR and respiratory reserve capacity (FIG. 18).

PSC-CMs [2] = assay: RNA expression of cardiac markers in PSC-CMs
Description: (§1) FOXO activation with LOM612 enhances protein (FIG. 19B) but not RNA expression of Kir2.1 (FIG. 19A). FOXO activation increases the upstroke velocity (spike slope) (FIG. 19C).
(§2) FOXO activation improved electrophysiological properties of PSC-CMs. FOXO activation with LOM612 enhances protein, but not RNA expression of Kir2.1 (FIGS. 19A-19B). FOXO activation increases the upstroke velocity (spike slope) (FIG. 19C).

[3] = system: iPSC-derived cardiomyocytes; assay: Protein expression of cardiac markers in iPSC-CMs, 3D suspension culture, FOXO/FOXM1 modulators; settings: for protein expression of TNNI3 / protein expression of TNNT2: 3D suspension culture
Description: as §1
(§3) Cell lines used included UCSD142i-86-1 iPSC line (WiCell), Gibco human episomal iPSC line (Thermo), and DiPS 1016SevA iPSC line (Harvard. Cardiomyocytes are obtained utilizing a differential protocol adapted from Lian et al. Nat Protoc 2013: 8 (1): 162-75 (FIG. 16A). The differentiation protocol may be modified utilizing modulators of FOXO and FOXM1 (FIG. 16B). Cardiomyocytes may be characterized as being contractility mature, metabolically mature, or electrophysiologically mature (FIG. 16C).

[4] = system: iPSC-derived cardiomyocytes; assay: Contractile and electrophysiological properties by multielectrode array analysis, FOXO/FOXM1 modulators; settings: for contractility: iPSC-derived cardiomyocytes
Description: as §3
The contractile properties of cardiomyocytes improved with FOXO activation. FOXO activation with LOM612 or FOXM1 inhibition with RCM-1 increases protein expression of cardiac troponin T (TNNT2) and increases mean beat amplitude by multielectrode array analysis (FIG. 17). […] AS1842856 may be applied in an amount of about 0.2 to 1 μM.
as §2

iPSC-CMs [5] = assay: Multielectrode array (Axion Maestro Edge) of iPSC-CMs in 3D culture; settings: iPSC-CMs differentiated and treated in 3D
Description: (§4) Nutlin-3a increases the percentage (FIG. 12A) and mean fluorescence intensity (MFI) (FIG. 12B) of TNNT2 in iPSC-CMs as well as the percentage (FIG. 12C) and MFI (FIG. 12D) of Kir2.1 in TNNT2+iPSC-CMs by flow cytometry. Nutlin-3a increases the percentage (FIG. 12E) and MFI (FIG. 12F) of p53 in TNNT2+iPSC-CMs. Nutlin-3a increases mean beat amplitude (FIG. 12G) and mean spike amplitude (FIG. 12H) of iPSC-CMs as quantified using a multielectrode array. *p<0.05. **p<0.01. ***p<0.001. ****p<0.0001 by one-way ANOVA. iPSC-CMs differentiated and treated in 3D.
(§5) Kir2.1 is the ion channel largely responsible for maintaining the resting membrane potential via the inward rectifier current (IK1); at lower levels, abnormal membrane depolarization can increase the risk of ventricular arrhythmias (8, 9). Nutlin-3a but not Torin1 treatment of iPSC-CMs increased expression of TNNT2 and Kir2.1 (FIG. 12A-12D). Also, Nutlin-3a but not Torin1 increased expression of p53, which may support induction of a quiescent state (FIG. 12E-12F).

iPSC-CMs [6] = assay: Flow cytometry of marker expression in iPSC-CMs differentiated and treated in 3D culture
Description: as §4, with “3D. […]” for “3D.”
as §5

iPSC-CMs [7] = assay: Resting membrane potential of iPSC-CMs in 2D culture; settings: Torin1 200 nM, compared to control (DMSO)
Description: Pluripotent stem cell-derived cardiomyocytes (PSC-CMs) offer a regenerative approach to treat patients with systolic heart failure. However, delivery of immature PSC-CMs may increase the risk of ventricular arrhythmias, which is a barrier to clinical translation (1, 2). It was recently identified that inhibition of the mechanistic target of rapamycin (mTOR) pathway improves maturation of cardiomyocytes derived from induced pluripotent stem cells (iPSCs) in two-dimensional (2D) culture (3). […] This could greatly simplify the manufacturing process compared to other protocols that take 2 months to produce mature PSC-CMs with similar resting membrane potentials (4).

| SMILES | maximum oxygen consumption rate (OCR) (PSC-CMs [1]) | respiratory reserve capacity (PSC-CMs [1]) | protein expression of TNNI3 [3] | protein expression of TNNT2 [3] | contractility [4] | mean beat amplitude by multielectrode array analysis ([4]; 3D suspension culture) | mean fluorescence intensity (MFI) of Kir2.1 (iPSC-CMs [6]; flow cytometry) | mean fluorescence intensity (MFI) of p53 (iPSC-CMs [6]; flow cytometry) | percentage of Kir2.1 in TNNT2+ iPSC-CMs (iPSC-CMs [6]; flow cytometry) | percentage of TNNT2 in iPSC-CMs (% TNNT2+) (iPSC-CMs [6]; flow cytometry) | percentage of p53 in TNNT2+ iPSC-CMs (iPSC-CMs [6]; flow cytometry) | expression of Kir2.1 (iPSC-CMs [6]; iPSC-CMs) | expression of p53 (iPSC-CMs [6]; iPSC-CMs) | further results |
| --- | --- | --- | --- | --- | --- | --- | --- | --- | --- | --- | --- | --- | --- | --- |
| CCn1cc(C(=O)O)c(=O)c2c(N)c(F)c(NC3CCCCC3)cc21 [AS1842856] | inhibits | inhibits | decreases | decreases | poorly contractile cells | – | – | – | – | – | – | – | – | cardiac marker RNA levels (PSC-CMs [2]): reduce; beating of spheroids ([4]; 3D suspension culture): non-beating spheroids |
| CN(C)c1nsc2c1C(=O)c1ccccc1C2=O [LOM612] | increases | increases | increases | increases | enhances | increases | – | – | – | – | – | – | – | protein expression of Kir2.1 ([3]; PSC-CMs): enhances; upstroke velocity (spike slope) ([4]; FOXO activation, PSC-CMs): increases |
| COc1ccc(C2=N[C@@H](c3ccc(Cl)cc3)[C@@H](c3ccc(Cl)cc3)N2C(=O)N2CCNC(=O)C2)c(OC(C)C)c1 [Nutlin-3a, nutlin-3a] | – | – | – | – | – | – | increases | increases | increases | increases | increases | increased | increased | mean beat amplitude (iPSC-CMs [5]): increases; mean spike amplitude (iPSC-CMs [5]): increases; mean fluorescence intensity (MFI) of TNNT2 (iPSC-CMs [6]; flow cytometry): increases; expression of TNNT2 (iPSC-CMs [6]; iPSC-CMs): increased |
| O=c1c(O)c(-c2ccc(O)c(O)c2)oc2cc(O)cc(O)c12 [Quercetin, quercetin] | – | – | – | – | – | – | increases | increases | increases | – | increases | increased | increased | – |
| N#Cc1c(-c2cccs2)cc(-c2cccs2)nc1SCC(=O)c1cccs1 [RCM1] | increases | increases | increases | increases | – | increases | increases | – | increases | increases | – | increased | – | purity of iPSC-CMs (iPSC-CMs [6]): increased |
| CCC(=O)N1CCN(c2ccc(-n3c(=O)ccc4cnc5ccc(-c6cnc7ccccc7c6)cc5c43)cc2C(F)(F)F)CC1 [Torin1] | – | – | – | – | – | – | – | – | – | – | – | – | – | resting membrane potential (iPSC-CMs [7]): decreased |
